Marks after values point to notes of the source that are not given here.
Key:
[1] = test system: rabbit papillary muscle; assay: Contractile force of heart: rabbit right ventricular papillary muscle; details: for amplitude % (contractile force, % of control): cumulative addition, 15-20 min incubation; for inotropic effect (in words): between 10^−6 and 10^−4 molar range
Text: Effect of racemic 5,6-dihydro-5-(1-piperidinyl)-methyl-3-(3-pyridyl)4H-1,2,4-oxadiazine and its (−) and (+) enantiomers on the contractile force of heart
New Zealand white rabbits (male, 2-3 kg) were killed by a blow on the nape. The hearts were rapidly removed after opening the chest. Right ventricular papillary muscles were dissected and mounted in organ holding chambers and pre-tension of 0.5 g was applied. The superfusate contained (in mM) 120 NaCl, 5.4 KCl, 2.7 CaCl2, 1.1 MgCl2, 1.1 NaH2PO4, 24.0 NaHCO3 and 11.0 glucose. The pH of this superfusate was 7.4 at 37° C. when gassed with 95% O2 and 5% CO2. Stimulation and measurements were carried out by Isosys System of Experimetria, Budapest, Hungary. The preparations were paced by 1-ms-wide isolated constant voltage at a cycle length of 1000 ms. The amplitudes of the pulses were equal to twice as high as the diastolic threshold value, delivered through a pair of platinum electrodes. Before the start of the measurements the preparation was equilibrated for 60 min to allow the stabilization of its mechanical parameters. The drugs were added to the organ bath cumulatively, without washing out. Period of the incubation was 15-20 min. Measured parameters were: resting force (mg) and changes in the amplitude of contractile force (mg) which was expressed in % of the control.

[2] = test system: spontaneously hypertensive rats; assay: Myocardial infarction in spontaneously hypertensive rats (coronary occlusion/reperfusion); type: in vivo, rat; details: SH rats; for Survival (%) / Infarcted area (%): oral 6 hours before occlusion (100 mg/kg), 1 h occlusion, 1 h reperfusion; for Infarcted area (%): percentage of left ventricle
Method: Myocardial Infarction in Spontaneously Hypertensive Rats
Myocardial ischemia was induced by a temporary occlusion of the main left coronary artery, according to Griswold et al (J. Pharmacol. Methods 1988, 20: 225-235). SH rats were anaesthetized with sodium pentobarbital (60 mg/kg i.p.). After tracheotomy, the animals were ventilated with room air by a respirator for small rodents (model: Harvard 552), with a stroke volume of 1,5-2 ml/100 g and a rate of 55 strokes/min to maintain normal pO2, pCO2 and pH parameters. The right carotid artery was catheterized and connected to a pressure transducer (P236B Stetham) for the measurement of systemic arterial blood pressure (BP) by means of a preamplifier (Hg-O2D Experimetria®). Heart rate (HR) was measured by a cardiotachometer (HR-01, Experimetria®). The electrocardiogram (ECG standard lead III) was recorded on a devices recorder (ER- 14, Micromed®) by means of subcutaneous steel needle electrodes. The chest was opened by a left thoracotomy and the heart was exteriorized by a gentle pressure on the right side of the rib cage. A 4/0 silk ligature was quickly placed under the main left coronary artery. The heart was replaced in the chest and the animal left to recover. Rectal temperature was monitored and was maintained constant at 37° C. The experiment was initiated with a 15 min stabilization period during which the observation of a sustained blood pressure less than 70 mmHg and/or the occurrence of arrhythmias lead to exclusion. Myocardial ischemia was induced with coronary artery occlusion for 1 h and reperfusion allowed for 1 hour. The drugs were administered orally 6 hours before occlusion.
Quantification of Myocardial Infarction
At the end of experiment, the heart was quickly removed. The left ventricle was then sliced into 2 mm thick sections parallel to the atrioventricular groove. The slices were incubated in a 0.1% solution of p-Nitroblue Tetrazolium (NBT) grade III, pH 7,4 for 15 min. The non-infarcted area was colored blue due to formation of a precipitate that results from reaction of NBT with dehydrogenase enzymes. Loss of these enzymes in the infarcted myocardium prevents the formation of the precipitate; thus, the infarcted area within the risk region remains pale yellow. The necrotic area was determined using computerized image analysis (COLIM, Pictron Kft), and was expressed as a percentage of the left ventricle.

[3] = test system: coronary flow responses to serotonin (5-HT) in hearts from spontaneously hypertensive (SH) rats; assay: Langendorff perfused rat heart: endothelial function before and after ischemia; details: for postischemic coronary response in percentage of the preischemic vasodilator response: 10^−6 M drug in perfusate, 10^−7 M 5-HT, 10 min global ischemia, SH rat heart
Method: Langendorff Perfused Rat Heart
Protocol for Assesment of Endothelial Function Before and After Ischemia
Rats were heparinised with i.p. heparin sodium (2500 IU) and anesthetized with i.p. pentobarbital (60 mg/kg). Hearts from spontaneously hypertensive (SH) rats were quickly removed and immediately perfused via the aorta using a gravity-flow, non-recirculating Langendorff apparatus (Experimetria Ltd) at a constant perfusion pressure (100 cm H2O) with Krebs-Henseleit Solution (KHS) containing in mM: NaCl 120; KCl 5.4; CaCl2 2.7; MgCl2 1.1; NaHCO3 24; D-glucose 11. The KHS was gassed with carbogen (95% O2; 5% CO2) resulting pH 7.4.
We used the so-called non-working heart model and measured the mean coronary flow by a transonic flow meter (Type T206, Transonic Systems Inc.). The flow probe was placed above the aortic cannula. Coronary flow was monitored throughout the experiment and registered by a potentiometric recorder. Hearts were allowed to beat spontaneously throughout the experiment. After 20-30 min of equilibration period the coronary flow reached a baseline value.
Endothelial function was assessed through observations of preischemic and postischemic coronary flow responses to serotonin (5-HT). In response to serotonin, the progress of dilatation of coronary artery depends on the soundness of the endothelium.
The Langendorff infusion was switched to the another column containing additional 10^−7 M serotonin (5-HT, Sigma Chemical Co.). The ensuing dilatation of coronary artery was monitored and when the steady state had been reached the 5-HT was washed out by switching back to the ordinary KHS. The heart was then subjected to a global ischemia for 10 min by the clamping the aortic cannula. At the end of the ischemic period, the heart was reperfused. When the baseline coronary flow had been reestablished, the heart was again subjected to the same protocol of sequential infusion of 5-HT and KHS as in the preischemic period. Control hearts were perfused with pure KHS and the hearts of the another three groups were perfused with KHS containing additional 10^−6 M racemic 5,6-dihydro-5-(1-piperidinyl)-methyl-3-(3-pyridyl)4H-1,2,4-oxadiazine, (−)-5,6-dihydro-5-(1-piperidinyl)-methyl-3-(3-pyridyl)4H-1,2,4-oxadiazine and (+)-5,6-dihydro-5-(1-piperidinyl)-methyl-3-(3-pyridyl)4H-1,2,4-oxadiazine, respectively. 20-30 min after the onset of hemodynamic stability, perfusion of the drugs were initiated and continued until reperfusion with the exception of the occlusion period.
The potischemic coronary responses are expressed in percentage of the preischemic vasodilator responses.

[4] = acute single oral 100 mg/kg 6 hours before occlusion

SMILES | amplitude % (contractile force, % of control) ([1]; 10^−4 M) [%] | amplitude % (contractile force, % of control) ([1]; 10^−5 M) [%] | amplitude % (contractile force, % of control) ([1]; 10^−6 M) [%] | inotropic effect (in words) [1] | Survival (%) [2] | Infarcted area (%) [2] [%] | postischemic coronary response in percentage of the preischemic vasodilator response [3] [%] | myocardial infarct size (in words) [2, 4] | survival rate (in words) [2, 4] | endothelial function after ischemia (in words) ([3]; 10^−6 M, 10 min of global ischemia)
c1cncc(C2=NOCC(CN3CCCCC3)N2)c1 (racemic) [racemic compound, 5,6-dihydro-5-(1-piperidinyl)-methyl-3-(3-pyridyl)4H-1,2,4-oxadiazine, reference compound] | 83.7 ± 3.3 | 87.1 ± 3.5 | 92.6 ± 5.08 | negative inotropic effect | 70.0% | 27.2 ± 5.8 | 63.08 ± 11.7 |  |  | 
c1cncc(C2=NOCC(CN3CCCCC3)N2)c1 (single isomer, unassigned; (+)) [(+) enantiomer, (+)-5,6-dihydro-5-(1-piperidinyl)-methyl-3-(3-pyridyl)4H-1,2,4-oxadiazine] | 78.4 ± 5.0 | 79.5 ± 5.6 | 90.1 ± 3.5 | negative inotropic effect | 75.0% | 34.5 ± 4.6 | 49.78 ± 9.9 |  |  | 
c1cncc(C2=NOCC(CN3CCCCC3)N2)c1 (single isomer, unassigned; (-)) [(−) enantiomer, (−)-5,6-dihydro-5-(1-piperidinyl)-methyl-3-(3-pyridyl)4H-1,2,4-oxadiazine] | 142.5 ± 4.8 | 132.8 ± 5.0 | 126.6 ± 5.3 | positive inotropic effect | 100.0** % | 7.1 ± 2.5 | 88.41 ± 10.9 | significantly reduced myocardial infarct size | increased survival rate | preserved endothelial function

Reference: patent US6384029B1, “Optically active pyridyl-4h-1,2,4-oxdadiazine derivative and its use in the treatment of vascular diseases” (Biorex Kutató Fejlesztö RT., priority 1998, dated 2002)
